Measured values from PMC12028472, “Marine-Derived Yaequinolone Derivative CHNQD-02792 Suppresses Colorectal Cancer Cell Proliferation and Induces Apoptosis via MAPK Pathway Modulation” (Marine Drugs, 2025).

Tests used:
HT-29 = experiment: MTT assay, HT-29 cells; type: cell-based; conditions: Homo sapiens, 72 h
Experimental: (§1) Human colorectal adenocarcinoma cells HT-29, HCT-116, DLD-1, LS-174T, RKO, and LoVo, as well as mouse colorectal carcinoma cell CT-26, were purchased from the Chinese Academy of Sciences Shanghai Cell Bank.
(§2) Cells stored at −80 °C were rapidly thawed in a 37 °C water bath, centrifuged to collect, and resuspended in a complete medium for culturing in a 37 °C, 5% CO2 incubator. Then, they were rinsed twice with PBS, digested with trypsin, and resuspended in a complete medium after detachment. HT-29, HCT-116, DLD-1, and CT-26 cells were cultured in RPMI-1640 medium supplemented with 10% FBS and 1% penicillin-streptomycin. LS-174T cells were cultured in DMEM-H medium, LoVo in Ham’s F-12K medium, and RKO in MEM.
(§3) Cells in the logarithmic growth phase were seeded in 96-well plates at 4000 cells per well, adjusted based on growth rates, and incubated overnight at 37 °C with 5% CO2. Experimental wells were treated with yaequinolone derivatives at concentrations of 0.4, 2, 10, 20, and 50 μM, while control wells received equivalent dilutions of DMSO to minimize effects. Each group was prepared in five replicates and incubated for 72 h. After removing the drug-containing medium, 100 μL of MTT solution (5 mg/mL) was added to each well and incubated at 37 °C for 4 h. The solution was then aspirated, replaced with 200 μL of DMSO, incubated for 10 min at 37 °C, and shaken before measuring absorbance (OD) at 570 nm using a microplate reader. The tumor cell survival rate was calculated as follows: survival rate (%) = [(OD experimental group − OD blank group)/(OD control group − OD blank group)] × 100%. All experiments were conducted in triplicate.

CT-26 = experiment: MTT assay, CT-26 cells; type: cell-based; conditions: Mus musculus, CT26, 72 h
Experimental: as §1, §2, §3

RKO = experiment: MTT assay, RKO cells; type: cell-based; conditions: Homo sapiens, 72 h
Experimental: as §1, §2, §3

LoVo = experiment: MTT assay, LoVo cells; type: cell-based; conditions: Homo sapiens, 72 h
Experimental: as §1, §2, §3

HCT-116 = experiment: MTT assay, HCT-116 cells; type: cell-based; conditions: Homo sapiens, 72 h
Experimental: as §1, §2, §3

DLD-1 = experiment: MTT assay, DLD-1 cells; type: cell-based; conditions: Homo sapiens, 72 h
Experimental: as §1, §2, §3

LS-174T = experiment: MTT assay, LS-174T cells; type: cell-based; conditions: Homo sapiens, LS174T, 72 h
Experimental: as §1, §2, §3

RAW264.7 cells = experiment: Inhibition of RAW264.7 cells (normal cells vs cancer cells); type: cell-based; conditions: Mus musculus
Text: Therefore, to verify the difference between CHNQD-02792 on normal cells and cancer cells, we examined the inhibition of CHNQD-02792 on RAW264.7 cells. […] The inhibition of HT-29 cell colony formation increased with higher concentrations of CHNQD-02792.

HT-29 cells [1] = experiment: Plate colony formation assay; type: cell-based, human; conditions: 9 μM, 14 days
Experimental: Cells in the logarithmic growth phase were seeded at 1000 per well in 6-well plates and incubated overnight at 37 °C with 5% CO2. CHNQD-02792 (2.3, 4.5, and 9 μM) was added to the experimental group, while the control group received an equal dilution of DMSO. The medium color was monitored regularly, and the medium was replaced simultaneously in both groups. After 14 days, clonal clusters (approximately 50 cells) were formed. The cells were washed with PBS, fixed with 4% paraformaldehyde for 1 h, stained with crystal violet for 30 min, washed again with PBS, dried, photographed, and analyzed using Image J software (v 1.8.0.) to count colonies. The cell proliferation rate was calculated by comparing the experimental group with the control group treated with DMSO.

HT-29 cells [2] = experiment: Cell cycle assay (PI, flow cytometry); type: cell-based, human; conditions: highest concentration, 48 h, control 16.42%
Experimental: Cells in the logarithmic growth phase were seeded at 350,000 cells per well in 6-well plates and incubated overnight at 37 °C with 5% CO2. CHNQD-02792 (2.3, 4.5, 9 μM) was added to the experimental group, while an equal dilution of DMSO was added to the control group. After 48 h, cells were collected, centrifuged at 300× g for 5 min at 4 °C, and resuspended in 1 mL of ice-cold PBS. This step was repeated, and the supernatant was discarded. The cells were then resuspended in 300 μL of PBS, and 700 μL of pre-cooled anhydrous ethanol was added dropwise for fixation at 4 °C overnight. Within 12–24 h, cells were centrifuged at 1000× g for 5 min, and the supernatant was discarded. The cells were washed with 1 mL of pre-cooled PBS, centrifuged again, and resuspended in 500 μL of PBS. RNase A and PI were then added to each tube, […]. The cells were incubated at 4 °C with RNase A and PI in the dark for 30 min. Data were collected using a flow cytometer (488 nm laser excitation, 620/29 nm filter), and results were analyzed using FlowJo software (v.10.8.1).

HT-29 cells [3] = experiment: Apoptosis assay (Annexin V-FITC/PI flow cytometry); type: cell-based, human
Experimental: Cells in the logarithmic growth phase were seeded at 600,000 cells per well in 6-well plates and incubated overnight at 37 °C in a 5% CO2 incubator. CHNQD-02792 (2.3, 4.5, 9 μM) was added to the experimental group, while the control group received an equal dilution of DMSO. After 48 h, cells were collected, centrifuged at 300× g for 5 min, and washed once with PBS. The cells were gently resuspended and counted. Take 1–5 × 10^5 resuspended cells, centrifuge at 300× g for 5 min, and discard the supernatant. The cells were washed once with PBS, centrifuged again, and the supernatant was discarded. Then, 500 μL of 1× diluted Annexin V Binding Buffer was added to resuspend the cells. Add 5 μL of Annexin V-FITC and 5 μL of PI (50 μg/mL) to the cell suspension. After gently vortexing, incubate the samples at room temperature in the dark for 15–20 min. Immediately analyze the samples using a flow cytometer. The results were analyzed using Novoexpress software (v.1.6.2).

Cyclin B1 = experiment: Western blot, Cyclin B1 expression in HT-29 cells; type: cell-based, human; conditions: HT-29, increasing concentrations (2.3, 4.5, 9 μM)
Experimental: (§4) Cells in the logarithmic growth phase were seeded at 600,000 cells per well in 6-well plates and incubated overnight at 37 °C with 5% CO2. CHNQD-02792 (2.3, 4.5, and 9 μM) was added to the experimental group, while an equivalent dilution of DMSO was added to the control group. After 24 h of treatment, the cells were collected from the incubator. The cells were washed twice with pre-cooled PBS, and the proteins were extracted using ice-cold RIPA lysis buffer (RIPA-PMSF, 99:1, v/v). Adherent cells were scraped off the Petri dish with a pre-cooled plastic scraper. Protein concentrations were measured using a BCA kit. Protein samples were mixed with 5× loading buffer, boiled in a metal bath for 6 min, and stored at −20 °C. Proteins of different molecular weights were separated by gel electrophoresis and transferred onto PVDF membranes using wet transfer. The membrane was blocked with 5% skimmed milk powder for 2 h, followed by incubation with the primary antibody overnight at 4 °C. After three washes with TBST (10 min each), the membrane was incubated with the secondary antibody at room temperature for 1 h. It was then washed three times with TBST (10 min each) and analyzed using a gel imaging system with a high-sensitivity ECL luminescent solution.

CDK1 = experiment: Western blot, CDK1 expression in HT-29 cells; type: cell-based, human; conditions: HT-29, increasing concentrations (2.3, 4.5, 9 μM)
Experimental: as §4

Caspase-3 = experiment: Western blot, Caspase-3 expression in HT-29 cells; type: cell-based, human; conditions: HT-29, increasing concentrations (2.3, 4.5, 9 μM)
Experimental: as §4

Bcl-2 = experiment: Western blot, Bcl-2 expression in HT-29 cells; type: cell-based, human; conditions: HT-29, increasing concentrations (2.3, 4.5, 9 μM)
Experimental: as §4

Bax = experiment: Western blot, Bax expression in HT-29 cells; type: cell-based, human; conditions: HT-29, increasing concentrations (2.3, 4.5, 9 μM)
Experimental: as §4

ERK = experiment: Western blot, ERK phosphorylation in HT-29 cells; type: cell-based, human; conditions: HT-29, Western blot
Experimental: as §4

JNK = experiment: Western blot, JNK phosphorylation in HT-29 cells; type: cell-based, human; conditions: HT-29, Western blot
Experimental: as §4

[4] = test system: LPS-induced RAW264.7 cells; parameters: method as in PMID 36758306; conditions: 10 nM; cited from earlier work
[5] = test system: LPS-induced RAW264.7 cells; parameters: method as in PMID 36758306; conditions: 50 nM; cited from earlier work

SMILES	IC50 (HT-29)	IC50 (LoVo)	IC50 (HCT-116)	IC50 (DLD-1)	IC50 (CT-26)	IC50 (RKO)	IC50 (LS-174T)	also measured
COc1ccc([C@]2(O)c3c(ccc4c3O[C@](C)(CCC=C(C)C)C=C4)N(Cc3cccc(Br)c3)C(=O)[C@H]2OC)cc1 [Compound 4]	> 50 µM	> 50 µM	> 50 µM	> 50 µM	> 50 µM	48.3 µM	> 50 µM	–
COc1ccc([C@]2(O)c3c(ccc4c3O[C@@](C)(CCC=C(C)C)C=C4)N(Cc3cccc(Br)c3)C(=O)[C@H]2OC)cc1 [Compound 7]	> 50 µM	25 µM	> 50 µM	> 50 µM	> 50 µM	22 µM	> 50 µM	–
CO[C@@H]1C(=O)Nc2ccc3c(c2[C@@]1(O)c1cccc(Br)c1)O[C@@](C)(CCC=C(C)C)C=C3 [Compound 12]	42.8 µM	> 50 µM	25.8 µM	11.6 µM	26.3 µM	37.3 µM	7.7 µM	–

Compounds with a lower IC50 (HT-29), results first:

IC50 (HT-29)	IC50 (LoVo)	IC50 (HCT-116)	IC50 (DLD-1)	SMILES	IC50 (CT-26)	IC50 (RKO)	IC50 (LS-174T)	also measured
15.6 µM	–	–	–	O=c1[nH]cc(F)c(=O)[nH]1 [5-fluorouracil, reference compound]	–	–	–	–
4.5 µM	28.3 µM	50 µM	> 50 µM	CO[C@@H]1C(=O)Nc2ccc3c(c2[C@@]1(O)c1cccc(Br)c1)O[C@](C)(CCC=C(C)C)C=C3 [Compound 13]	> 50 µM	28 µM	24.3 µM	IC50 (RAW264.7 cells): 27.2 µM; growth of HT-29 cells, plate cloning assay (HT-29 cells [1]): completely inhibited; proportion of cells in the G2/M phase (HT-29 cells [2]): 31.78%; Q4 (early apoptotic cells) (HT-29 cells [3]; 9.0 μM, 48 h, HT-29, Annexin V-FITC/PI, control 5.31%): 20.23%; proportion of apoptotic cells (HT-29 cells [3]; 48 h of treatment, HT-29, control 6.81%): 26.10%; Cyclin B1 protein expression level (Cyclin B1): decreased; CDK1 protein expression level (CDK1): decreased; Caspase-3 protein expression (Caspase-3): significantly increased; Bcl-2 protein expression (Bcl-2): markedly decreased; Bax protein expression (Bax): increased; phosphorylation of ERK (ERK): inhibited; phosphorylation of JNK (JNK): increased; NO release [4]: significantly inhibiting; IL-6 level [5]: significantly inhibiting
